From article PMC9503132, “Development of Halogenated-Chalcones Bearing with Dimethoxy Phenyl Head as Monoamine Oxidase-B Inhibitors” (Pharmaceuticals, 2022)
Where two headings read alike, the source gives them in different places.

Key:
BACE-1 = target: T1, BACE-1 (Homo sapiens, UniProt P56817); test: BACE-1 inhibition (β-secretase activity detection kit); type: biochemical; conditions: read-out: Residual activity at 10 µM (%) BACE-1
T1 construct: purchased Sigma-Aldrich
Description: (§1) The AChE and BChE inhibitory activities were measured by continuous colorimetric determination method, in the presence of 0.5 mM acetylthiocholine iodide (ACTI) and butyrylthiocholine iodide […]
(§2) POP, K LAB, Daejeon, Korea). After adding the substrate, 0.5 mM 5,5-dithiobis (2-nitrobenzoic acid) (DTNB) was added as the color development solution. The BACE-1 inhibitory activity was evaluated by β-secretase (BACE1) activity detection kit (Sigma-Aldrich, St. Louis, Mo, USA) using a fluorescence spectrometer (FS-2, Scinco, Seoul, Korea). […]

AChE = AChE (Electrophorus electricus, UniProt O42275); test: AChE inhibition (colorimetric, acetylthiocholine iodide); type: biochemical; conditions: read-out: Residual activity at 10 µM (%) AChE
Description: as §1
POP, K LAB, Daejeon, Korea). After adding the substrate, 0.5 mM 5,5-dithiobis (2-nitrobenzoic acid) (DTNB) was added as the color development solution. The BACE-1 inhibitory activity was evaluated by β-secretase (BACE1) activity detection kit (Sigma-Aldrich, St. Louis, Mo, USA) using a fluorescence spectrometer (FS-2, Scinco, Seoul, Korea).
64. […] A new and rapid colorimetric determination of acetylcholinesterase activity. Biochem. Pharmacol. 7, 88-95. […]

MAO-A = target: T2, MAO-A (Homo sapiens, UniProt P21397); test: MAO-A inhibition assay (recombinant enzyme, kynuramine substrate); type: biochemical; conditions: for remaining activity at 10 µM: read-out: Residual Activity at 10 µM (%) MAO-A
T2 construct: purchased Sigma-Aldrich
T2 sequence (P21397 1-527): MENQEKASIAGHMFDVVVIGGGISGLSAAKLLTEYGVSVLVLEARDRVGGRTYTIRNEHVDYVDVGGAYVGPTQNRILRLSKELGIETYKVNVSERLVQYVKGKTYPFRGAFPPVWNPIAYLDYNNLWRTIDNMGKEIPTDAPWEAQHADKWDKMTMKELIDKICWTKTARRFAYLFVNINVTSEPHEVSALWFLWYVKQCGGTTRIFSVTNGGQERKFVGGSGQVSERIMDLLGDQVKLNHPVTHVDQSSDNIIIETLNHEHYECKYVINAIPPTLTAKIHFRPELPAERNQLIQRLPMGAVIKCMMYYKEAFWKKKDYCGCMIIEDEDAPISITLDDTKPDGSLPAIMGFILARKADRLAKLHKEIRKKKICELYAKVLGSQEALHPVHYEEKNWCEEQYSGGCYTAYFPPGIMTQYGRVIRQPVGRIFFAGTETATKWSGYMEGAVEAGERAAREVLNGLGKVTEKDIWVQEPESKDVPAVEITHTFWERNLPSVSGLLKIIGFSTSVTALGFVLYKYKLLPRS
Description: (§3) Recombinant MAO-A and MAO-B were used to test the MAO inhibitory activity using the substrates kynuramine and benzylamine (0.06 mM and 0.3 mM, respectively). […] Chemicals were from Sigma-Aldrich.
(§4) MAO-A At 10 µM, compounds’ inhibitory effects on MAOs were initially recorded. […] The SI values of MAO-B were calculated by dividing the IC50 values for MAO-A and those for MAO-B. The MAO-B was used to study the kinetics of substances DM2 or DM18 at five different substrate concentrations. By using the LB plots and their secondary plots at three different inhibitor doses, the inhibition patterns were examined.

MAO-B = target: T3, MAO-B (Homo sapiens, UniProt P27338); test: MAO-B inhibition assay (recombinant enzyme, benzylamine substrate); type: biochemical; conditions: for remaining activity at 10 µM: read-out: Residual Activity at 10 µM (%) MAO-B
T3 construct: purchased Sigma-Aldrich
T3 sequence (P27338 1-520): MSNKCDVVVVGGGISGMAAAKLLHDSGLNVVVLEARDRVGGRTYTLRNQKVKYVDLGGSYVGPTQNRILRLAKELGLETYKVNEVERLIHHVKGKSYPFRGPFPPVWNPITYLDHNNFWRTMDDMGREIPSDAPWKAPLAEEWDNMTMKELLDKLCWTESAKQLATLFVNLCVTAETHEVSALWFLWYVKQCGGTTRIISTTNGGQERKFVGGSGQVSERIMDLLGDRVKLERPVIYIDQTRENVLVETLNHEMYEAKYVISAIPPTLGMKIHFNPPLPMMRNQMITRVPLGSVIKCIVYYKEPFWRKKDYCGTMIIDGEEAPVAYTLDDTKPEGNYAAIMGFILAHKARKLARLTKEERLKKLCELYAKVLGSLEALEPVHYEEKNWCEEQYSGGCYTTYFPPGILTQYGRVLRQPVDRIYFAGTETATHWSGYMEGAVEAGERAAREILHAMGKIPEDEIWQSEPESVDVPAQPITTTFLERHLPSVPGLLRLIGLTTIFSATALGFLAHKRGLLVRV
Description: as §3, §4

BChE = BChE (Equus caballus, UniProt P81908); test: biochemical; conditions: read-out: Residual activity at 10 µM (%) BChE
Description: as §1, §2

[1] = 10 µM compound, recombinant MAO-A, kynuramine 0.06 mM
[2] = recombinant MAO-A, kynuramine 0.06 mM, read-out: IC50 (µM) MAO-A
[3] = 10 µM compound, recombinant MAO-B, benzylamine 0.3 mM
[4] = IC50 MAO-A divided by IC50 MAO-B
[5] = recombinant MAO-B, benzylamine 0.3 mM, read-out: IC50 (µM) MAO-B

Sequence of AChE (O42275 24-633): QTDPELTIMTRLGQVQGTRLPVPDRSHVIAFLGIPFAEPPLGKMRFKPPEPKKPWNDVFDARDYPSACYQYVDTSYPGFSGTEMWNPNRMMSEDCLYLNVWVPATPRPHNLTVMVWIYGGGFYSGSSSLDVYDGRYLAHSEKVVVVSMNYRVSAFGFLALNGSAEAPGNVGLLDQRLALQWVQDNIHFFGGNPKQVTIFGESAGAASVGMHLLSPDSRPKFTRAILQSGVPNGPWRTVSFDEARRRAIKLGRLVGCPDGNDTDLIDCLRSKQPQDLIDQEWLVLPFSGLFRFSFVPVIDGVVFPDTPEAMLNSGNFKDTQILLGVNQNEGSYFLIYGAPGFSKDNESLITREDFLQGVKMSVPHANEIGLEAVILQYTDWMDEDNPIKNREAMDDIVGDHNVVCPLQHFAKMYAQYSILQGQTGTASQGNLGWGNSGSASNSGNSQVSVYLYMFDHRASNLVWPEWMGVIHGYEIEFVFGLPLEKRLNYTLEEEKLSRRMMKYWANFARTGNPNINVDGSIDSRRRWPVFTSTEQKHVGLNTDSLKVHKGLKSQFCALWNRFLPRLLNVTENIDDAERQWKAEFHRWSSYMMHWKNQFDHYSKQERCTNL
Sequence of BChE (P81908 whole entry): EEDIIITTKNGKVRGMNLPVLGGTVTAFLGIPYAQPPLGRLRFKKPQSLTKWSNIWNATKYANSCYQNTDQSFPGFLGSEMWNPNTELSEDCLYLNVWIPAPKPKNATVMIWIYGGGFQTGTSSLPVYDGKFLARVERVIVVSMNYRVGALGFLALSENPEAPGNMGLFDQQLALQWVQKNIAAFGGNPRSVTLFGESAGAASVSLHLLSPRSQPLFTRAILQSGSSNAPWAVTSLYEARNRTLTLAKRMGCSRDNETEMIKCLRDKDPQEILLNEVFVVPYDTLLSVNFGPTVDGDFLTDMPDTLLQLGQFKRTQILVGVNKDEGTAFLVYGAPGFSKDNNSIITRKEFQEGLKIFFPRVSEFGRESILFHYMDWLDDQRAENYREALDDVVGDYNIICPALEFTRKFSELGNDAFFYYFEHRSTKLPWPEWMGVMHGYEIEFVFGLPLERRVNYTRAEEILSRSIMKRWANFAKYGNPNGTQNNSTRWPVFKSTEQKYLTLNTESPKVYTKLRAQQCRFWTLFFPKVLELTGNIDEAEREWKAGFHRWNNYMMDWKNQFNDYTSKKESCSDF
T1 sequence (P56817 46-501): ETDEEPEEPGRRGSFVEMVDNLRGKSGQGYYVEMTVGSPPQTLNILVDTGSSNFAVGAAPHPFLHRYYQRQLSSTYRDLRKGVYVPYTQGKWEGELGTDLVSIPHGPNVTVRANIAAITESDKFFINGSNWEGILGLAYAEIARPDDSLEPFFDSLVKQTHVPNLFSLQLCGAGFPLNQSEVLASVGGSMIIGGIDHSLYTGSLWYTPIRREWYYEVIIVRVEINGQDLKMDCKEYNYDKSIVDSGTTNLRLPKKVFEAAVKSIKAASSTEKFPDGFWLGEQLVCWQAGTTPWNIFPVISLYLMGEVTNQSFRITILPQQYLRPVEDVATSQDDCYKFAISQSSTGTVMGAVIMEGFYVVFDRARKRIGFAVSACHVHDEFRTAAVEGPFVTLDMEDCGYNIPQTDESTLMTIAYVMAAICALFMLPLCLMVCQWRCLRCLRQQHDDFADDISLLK

SMILES | remaining activity at 10 µM (BACE-1; 10 µM compound) [%] | remaining activity at 10 µM (AChE) [%] | remaining activity at 10 µM (MAO-A; [1]) [%] | IC50 (MAO-A; [2]) [µM] | remaining activity at 10 µM (MAO-B; [3]) [%] | SI (selectivity index for MAO-B as compared to MAO-A) (MAO-B; [4]) | IC50 (MAO-B; [5]) [µM] | remaining activity at 10 µM (BChE) [%] | SI (selectivity index for MAO-B as compared to MAO-A) (MAO-B) | remaining activity at 10 µM (BACE-1) [%] | IC50 (MAO-A) [µM] | remaining activity at 10 µM (MAO-A) [%] | IC50 (MAO-B) [µM] | remaining activity at 10 µM (MAO-B) [%]
COc1ccc(C(=O)/C=C/c2ccccc2Cl)cc1OC [DM12] | 94.3 ± 1.06 | 68.5 ± 2.87 | 88.7 ± 9.4 | > 40 | 8.98 ± 0.92 | >32.65 | 1.23 ± 0.25 | 63.5 ± 1.47 |  |  |  |  |  | 
COc1ccc(C(=O)/C=C/c2cccc(Cl)c2)c(OC)c1 [DM3] | 99.67 ± 0.53 | 81.5 ± 4.09 | 43.3 ± 1.2 | 5.73 ± 0.142 | 7.89 ± 0.63 | 44.08 | 0.13 ± 0.023 | 69.87 ± 0.19 |  |  |  |  |  | 
COc1ccc(C(=O)/C=C/c2ccc(F)cc2)cc1OC [DM20] | 99.89 ± 0.08 | 86.98 ± 0.45 | 97.5 ± 8.95 | > 40 | 3.7 |  | 0.483 ± 0.077 | 93.1 ± 6.5 | >83.82 |  |  |  |  | 
COc1ccc(C(=O)/C=C/c2ccc(Cl)cc2)cc1OC [DM14] | 99.83 ± 0.81 | 97.6 ± 3.42 | 98.8 ± 1.77 | > 40 | 9.45 ± 2.88 | >48.02 | 0.833 ± 0.087 | 76.5 ± 1.37 |  |  |  |  |  | 
COc1ccc(C(=O)/C=C/c2ccc(Cl)cc2)c(OC)c1 [DM4] |  | 74.2 ± 2.43 |  |  |  | 7.61 |  | 80.1 ± 1.59 |  | 90.82 ± 0.09 | 4.48 ± 0.152 | 38.8 ± 3.4 | 0.589 ± 0.055 | 18.6 ± 1.04
COc1ccc(C(=O)/C=C/c2ccc(Br)cc2)cc1OC [DM17] | 100.03 ± 0.04 | 81.8 ± 6.31 | 96.88 ± 0.88 | > 40 | 13.8 ± 0.61 | >273.97 | 0.146 ± 0.041 | 68.9 ± 1.57 |  |  |  |  |  | 
COc1ccc(C(=O)/C=C/c2ccc(F)cc2)c(OC)c1 [DM10] | 87.13 ± 0.42 | 64.3 ± 6.85 | 53.9 ± 7.17 | 16 ± 1.47 | 23.2 ± 0.37 | 8.14 | 1.96 ± 0.065 | 92.84 ± 0.51 |  |  |  |  |  | 
COc1ccc(C(=O)/C=C/c2ccccc2Br)c(OC)c1 [DM5] | 87.8 ± 0.29 | 71.2 ± 6.12 | 54.5 ± 4.32 | 12.4 ± 0.872 | 10.6 ± 1.88 | 77.02 | 0.161 ± 0.02 | 60.54 ± 0.03 |  |  |  |  |  | 
COc1ccc(C(=O)/C=C/c2ccc(Br)cc2)c(OC)c1 [DM7] | 97.29 ± 0.34 | 87.2 ± 1.19 | 40.3 ± 1.05 | 4.733 ± 0.005 | 15.6 ± 1.78 | 5.60 | 0.844 ± 0.023 | 98.2 ± 1.01 |  |  |  |  |  | 
COc1ccc(C(=O)/C=C/c2ccccc2Br)cc1OC [DM15] | 99.54 ± 0.24 | 83.9 ± 4.91 | 77.5 ± 7.07 | > 40 | 10.2 ± 0.17 | >55.87 | 0.716 ± 0.056 | 55.2 ± 1.01 |  |  |  |  |  | 
COc1ccc(C(=O)/C=C/c2ccccc2F)c(OC)c1 [DM8] | 91.01 ± 0.06 | 82.7 ± 10.4 | 56.4 ± 7.34 | 13.4 ± 0.82 | 11.1 ± 1.44 | 11.90 | 1.13 ± 0.033 | 85.42 ± 0.67 |  |  |  |  |  | 
COc1ccc(C(=O)/C=C/c2cccc(F)c2)cc1OC [DM19] | 99.86 ± 0.12 | 70 ± 2.02 | 93.7 ± 7.16 | > 40 | 3.94 ± 1.76 | >88.89 | 0.45 ± 0.071 | 103 ± 8.13 |  |  |  |  |  | 
COc1ccc(C(=O)/C=C/c2ccccc2)cc1OC [DM11] | 97.5 ± 1.02 | 80.3 ± 5.21 | 64.6 ± 0.72 | 14.3 ± 1.83 | 14.6 ± 3.48 | 6.54 | 2.19 ± 0.098 | 80.5 ± 1.36 |  |  |  |  |  | 
COc1ccc(C(=O)/C=C/c2cccc(Cl)c2)cc1OC [DM13] | 99.86 ± 0.28 | 95 ± 3.4 | 75.6 ± 0.88 | > 40 | 7.49 ± 0.12 | >8.51 | 4.7 ± 0.32 | 100 ± 7.32 |  |  |  |  |  | 
COc1ccc(C(=O)/C=C/c2cccc(Br)c2)cc1OC [DM16] | 99.74 ± 0.04 | 82.7 ± 9.21 | 76.9 ± 0.88 | > 40 | 11.8 ± 5.27 | >35.94 | 1.11 ± 0.26 | 91.2 ± 1.43 |  |  |  |  |  | 
COc1ccc(C(=O)/C=C/c2cccc(F)c2)c(OC)c1 [DM9] | 88.2 ± 0.28 | 71.9 ± 3.06 | 50.6 ± 0.82 | 11.3 ± 1.06 | 10.8 ± 0.23 | 45.93 | 0.246 ± 0.074 | 72.5 ± 3.69 |  |  |  |  |  | 
COc1ccc(C(=O)/C=C/c2ccccc2)c(OC)c1 [DM1] |  | 75.6 ± 2.35 |  |  |  | 16.61 |  | 93.21 ± 0.3 |  | 92.67 ± 0.26 | 15.4 ± 1.97 | 57.2 ± 1.91 | 0.927 ± 0.021 | 17.6 ± 0.74
COc1ccc(C(=O)/C=C/c2cccc(Br)c2)c(OC)c1 [DM6] | 88.53 ± 0.22 | 73 ± 0.75 | 62.7 ± 1.32 | 12.8 ± 1.57 | 5.5 ± 0.64 | 86.49 | 0.148 ± 0.087 | 79.7 ± 1.1 |  |  |  |  |  | 
